The test has as its target T1, urokinase-type plasminogen activator (uPA) (Homo sapiens, UniProt P00749).
T1 construct: gene PLAU; uPA purified from human urine
Briefly: colorimetric uPA activity assay (CHEMICON kit), dose-response […] to […]. It is filed as biochemical.

Consider WX-340, for which the midpoint of inhibition, the IC50, lay at 90 nM.

Broadly, the IC50 is the concentration that inhibits the measured activity by half.

For the origin of these results see PMC8999125, “In Vitro and In Vivo Effects of the Urokinase Plasminogen Activator Inhibitor WX-340 on Anaplastic Thyroid Cancer Cell Lines” (International Journal of Molecular Sciences, 2022).
